Experiment [1] deals with T1, PTK2B (Homo sapiens, UniProt Q14289).
T1 construct: expressed in transfected cells; host or cells: U2OS
In words: Cell imaging assay in fixed U2OS cells. The experiment is classed as binding. The following applies: ligand as SNAP-EGFP conjugate. The source says:
(§1) Finally, we developed a binding assay applicable to fixed cells. Such an assay is desirable if the protein to be analyzed is insoluble or unstable in extracts. In this assay (Figure 1B, 7A), the epitope-tagged receptor protein is over-expressed in mammalian cells by transient transfection. The cells are fixed with paraformaldehyde and permeabilized with nonionic detergent. The expression of the receptor protein is then confirmed by visualization with the anti-epitope tag antibody conjugated with a fluorophore using immunofluorescence microscopy. In parallel, the ligand-protein interaction is examined with the aid of BG-derivatized ligand conjugated to EGFP via SNAP-tag. […] We evaluated the generality of this method using other previously validated drug-protein interactions (PDE6D-atorvastatin, PTK2B-purvalanol B, and FYN-dasatinib). Binding of all three pairs was detected with this method (Figure S3).
(§2) Supplementary file pone.0037598.s003.tif: Figure S3 Cell imaging assay using validated drug-receptor pairs. (A) U2OS cells were transfected with a plasmid which express V5 tagged PDE6D. One day after transfection, cells were fixed with 4% paraformaldehyde, and permeabilized with 0.1% Tritin X-100. After washing, the cells were incubated with anti-V5-antibody conjugated with FITC or 100 nM atorvastatin-SNAP-EGFP. Fluorescence images (GFP filter) were taken within 30 min after washing of the cells. (B) (C) Cell imaging assay using pairs of purvalanol B-PTK2B and dasatinib-FYN, respectively. (TIF) Click here for additional data file.

Experiment [2] concerns the target T2, SNAP-ORP7 (Homo sapiens, UniProt Q9BZF2).
T2 construct: strep-tag (N); made in house; host or cells: HEK293 (suspension HEK-293E), transient transfection, Strep-tactin purified
T2 sequence (Q9BZF2 1-842): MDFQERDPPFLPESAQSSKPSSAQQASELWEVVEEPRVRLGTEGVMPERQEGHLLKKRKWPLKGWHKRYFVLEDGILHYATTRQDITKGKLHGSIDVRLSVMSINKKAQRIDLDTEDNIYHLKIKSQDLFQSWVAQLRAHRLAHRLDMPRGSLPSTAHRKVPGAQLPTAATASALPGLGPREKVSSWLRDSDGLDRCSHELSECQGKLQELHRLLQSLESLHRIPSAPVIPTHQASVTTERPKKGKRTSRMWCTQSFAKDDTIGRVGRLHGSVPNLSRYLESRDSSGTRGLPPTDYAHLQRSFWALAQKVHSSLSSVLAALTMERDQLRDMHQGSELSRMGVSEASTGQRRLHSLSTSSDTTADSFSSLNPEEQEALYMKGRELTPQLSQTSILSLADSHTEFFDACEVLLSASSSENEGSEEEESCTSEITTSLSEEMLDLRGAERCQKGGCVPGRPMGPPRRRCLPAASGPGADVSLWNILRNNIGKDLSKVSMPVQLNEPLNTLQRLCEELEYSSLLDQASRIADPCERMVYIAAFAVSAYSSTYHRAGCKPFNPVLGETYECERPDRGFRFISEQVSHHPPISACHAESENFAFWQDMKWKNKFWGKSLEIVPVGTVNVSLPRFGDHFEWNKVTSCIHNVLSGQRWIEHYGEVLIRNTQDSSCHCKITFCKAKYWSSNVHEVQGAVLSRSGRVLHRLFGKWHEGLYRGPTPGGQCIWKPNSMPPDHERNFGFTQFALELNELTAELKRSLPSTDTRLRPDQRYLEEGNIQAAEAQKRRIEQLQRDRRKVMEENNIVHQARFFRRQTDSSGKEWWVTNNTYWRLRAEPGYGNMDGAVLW
Format: binding. The note with it: HEK293 cell extract, free erlotinib 10 µM.

In experiment [3] the target is SNAP-eDHFR L54I (Escherichia coli, UniProt P0ABQ4, L54I). In words: biochemical. The experiment is classed as binding.
Experiment [4] deals with T3, SNAP-eDHFR WT (Escherichia coli, UniProt P0ABQ4). In words: biochemical.
Experiment [5] concerns the target SNAP-eDHFR L54G (Escherichia coli, UniProt P0ABQ4, L54G). In words: biochemical. The experiment is classed as binding.
Experiment [6] concerns the target T3, SNAP-eDHFR WT. In words: biochemical. Format: binding.
Experiment [7] relates to eDHFR (every eDHFR mutant). In words: SNAP-based TR-FRET competition assay using MTX and MTX-BG as competitors. Format: binding, Escherichia coli. The following applies: MTX-BG vs MTX, 100 µM NADPH. Background: In TR-FRET formats the signal depends on donor and acceptor labels being close together.
The target in experiment [8] is T4, FYN (Homo sapiens, UniProt P06241).
T4 construct: expressed in transfected cells; host or cells: U2OS
In words: Cell imaging assay in fixed U2OS cells. The experiment is classed as binding. The note with it: ligand as SNAP-EGFP conjugate.
Description: as §1, §2

The target of experiment [9] is T5, PDE6D (Homo sapiens, UniProt O43924).
T5 construct: expressed in transfected cells; host or cells: U2OS
In words: Cell imaging assay in fixed U2OS cells. The experiment is classed as binding. The following applies: 100 nM atorvastatin-SNAP-EGFP.
Description: as §1, §2

For `CC(C)[C@H](CO)Nc1nc(Nc2ccc(C(=O)O)c(Cl)c2)c2ncn(C(C)C)c2n1` [purvalanol B], the “Binding detected by cell imaging, PTK2B” value in experiment [1] was “detected”.

For the compound `C#Cc1cccc(Nc2ncnc3cc(OCCOC)c(OCCOC)cc23)c1` [erlotinib], the “Effect of free ligand on hetero-crosslinking product band” value in experiment [2] is “no longer detected”.

Turning to `CC1(C)N=C(N)N=C(N)N1OCCCOc1cc(Cl)c(Cl)cc1Cl` [WR99210], the dissociation constant Kd – broadly, the equilibrium constant for the complex coming apart – in experiment [3] is 2600 ± 210 nM; in experiment [5], 15000 ± 790 nM; in experiment [6], 12000 ± 950 nM. Besides, the IC50 (usually the concentration that gives 50% inhibition) in experiment [4] stood at 54000 ± 16000 nM.

methotrexate-BG [MTX-BG]: the “Change of Kd values by derivatization of MTX with BG” value in experiment [7] was “about 10 fold”.

Take `COc1cc(NCc2ccc3nc(N)nc(N)c3c2C)cc(OC)c1OC` [Trimetrexate, trimetrexate]: the Kd in [3] came out at 0.1 ± 0.01 nM; in experiment [5], 0.64 ± 0.04 nM; in experiment [6], 0.15 ± 0.01 nM. In experiment [4], this compound displayed an IC50 of 0.27 ± 0.03 nM.

On to `Cc1nc(Nc2ncc(C(=O)Nc3c(C)cccc3Cl)s2)cc(N2CCN(CCO)CC2)n1` [dasatinib], for which the “Binding detected by cell imaging, FYN” value in experiment [8] is “detected”.

On to `CC(C)c1c(C(=O)Nc2ccccc2)c(-c2ccccc2)c(-c2ccc(F)cc2)n1CC[C@@H](O)C[C@@H](O)CC(=O)O` [atorvastatin], for which the “Binding detected by cell imaging, PDE6D” value in experiment [9] is given as “detected”.

(Values after paper PMC3365113, “Exploiting Ligand-Protein Conjugates to Monitor Ligand-Receptor Interactions” (PLoS ONE, 2012).)
